Earlier results, collected in patent publication US6660719B2, “Inhibiting T-Cell proliferation” (BioCryst Pharmaceuticals Inc., priority 2001, dated 2003).
Like-named read-outs stand apart in the source and are kept apart here.

Key:
[1] = system: peripheral blood lymphocytes; settings: 2′-deoxyguanosine alone, without PNP inhibition; species not given
[2] = system: CCRF-CEM cells; settings: given with 2′-deoxyguanosine
[3] = system: Molt-4 cells; settings: given with 2′-deoxyguanosine
[4] = system: T-cells; settings: rats; given with 2′-deoxyguanosine
[5] = system: peripheral blood lymphocytes; settings: given to rats with 2′-deoxyguanosine
[6] = system: peripheral blood lymphocytes; settings: given to dogs with 2′-deoxyguanosine

SMILES: Nc1nc2c(ncn2[C@H]2C[C@H](O)[C@@H](CO)O2)c(=O)[nH]1 [2′-deoxyguanosine]
- cell counts (lymphopenia) [1]: did not significantly decrease cell counts

SMILES: Nc1nc2nc(N)[nH]c2c(=O)[nH]1 [8-Aminoguanine]
- proliferation of human T-cells in cultures [2]: inhibits the proliferation
- proliferation of human T-cells in cultures [3]: inhibits the proliferation

SMILES: Nc1nc2c(nc(N)n2[C@@H]2O[C@H](CO)[C@@H](O)[C@H]2O)c(=O)[nH]1 [8-Aminoguanosine]
- levels of 2′-deoxyguanosine triphosphate (dGTP) in T-cells [4]: increased levels
- peripheral blood lymphocytes [5]: profound fall
- peripheral blood lymphocytes [6]: profound fall
